Legend:
[1] = Half life in mouse at 20 mg/kg, ip; format: ADME, organism-based; conditions: in vivo
[2] = target: SRSF protein kinase 1 (Homo sapiens, UniProt Q96SB4); assay: Inhibition of SRPK1 (unknown origin) by TR-FRET assay
[3] = Cysteine reactivity assessed as cysteine oxidation; format: physicochemical
[4] = cells; conditions: Homo sapiens, MOLP-8
Description: Cytotoxicity against human MOLP8 cells

[5] = target: T1, Induced myeloid leukemia cell differentiation protein Mcl-1 (Homo sapiens, UniProt Q07820); assay: Binding kinetics to MCl-1 (unknown origin) assessed as dissociation rate constant for state two
T1 sequence (Q07820 whole entry): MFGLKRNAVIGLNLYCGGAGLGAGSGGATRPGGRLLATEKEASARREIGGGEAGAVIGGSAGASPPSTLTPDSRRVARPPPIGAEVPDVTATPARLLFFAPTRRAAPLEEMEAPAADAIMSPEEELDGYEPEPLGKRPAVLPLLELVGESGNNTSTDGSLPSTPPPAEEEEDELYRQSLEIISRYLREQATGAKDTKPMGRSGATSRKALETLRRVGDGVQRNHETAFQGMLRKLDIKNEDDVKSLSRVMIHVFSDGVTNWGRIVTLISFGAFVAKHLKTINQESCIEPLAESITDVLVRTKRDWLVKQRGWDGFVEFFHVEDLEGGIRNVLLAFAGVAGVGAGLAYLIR

[6] = target: T1, Induced myeloid leukemia cell differentiation protein Mcl-1; assay: Binding kinetics to MCl-1 (unknown origin) assessed as dissociation rate constant for state one
[7] = target: T2, Phosphatidylinositol 4,5-bisphosphate 3-kinase catalytic subunit delta isoform (Homo sapiens) (UniProt O00329); assay: (§1) Inhibition of PI3Kdelta (unknown origin)
T2 sequence (whole entry): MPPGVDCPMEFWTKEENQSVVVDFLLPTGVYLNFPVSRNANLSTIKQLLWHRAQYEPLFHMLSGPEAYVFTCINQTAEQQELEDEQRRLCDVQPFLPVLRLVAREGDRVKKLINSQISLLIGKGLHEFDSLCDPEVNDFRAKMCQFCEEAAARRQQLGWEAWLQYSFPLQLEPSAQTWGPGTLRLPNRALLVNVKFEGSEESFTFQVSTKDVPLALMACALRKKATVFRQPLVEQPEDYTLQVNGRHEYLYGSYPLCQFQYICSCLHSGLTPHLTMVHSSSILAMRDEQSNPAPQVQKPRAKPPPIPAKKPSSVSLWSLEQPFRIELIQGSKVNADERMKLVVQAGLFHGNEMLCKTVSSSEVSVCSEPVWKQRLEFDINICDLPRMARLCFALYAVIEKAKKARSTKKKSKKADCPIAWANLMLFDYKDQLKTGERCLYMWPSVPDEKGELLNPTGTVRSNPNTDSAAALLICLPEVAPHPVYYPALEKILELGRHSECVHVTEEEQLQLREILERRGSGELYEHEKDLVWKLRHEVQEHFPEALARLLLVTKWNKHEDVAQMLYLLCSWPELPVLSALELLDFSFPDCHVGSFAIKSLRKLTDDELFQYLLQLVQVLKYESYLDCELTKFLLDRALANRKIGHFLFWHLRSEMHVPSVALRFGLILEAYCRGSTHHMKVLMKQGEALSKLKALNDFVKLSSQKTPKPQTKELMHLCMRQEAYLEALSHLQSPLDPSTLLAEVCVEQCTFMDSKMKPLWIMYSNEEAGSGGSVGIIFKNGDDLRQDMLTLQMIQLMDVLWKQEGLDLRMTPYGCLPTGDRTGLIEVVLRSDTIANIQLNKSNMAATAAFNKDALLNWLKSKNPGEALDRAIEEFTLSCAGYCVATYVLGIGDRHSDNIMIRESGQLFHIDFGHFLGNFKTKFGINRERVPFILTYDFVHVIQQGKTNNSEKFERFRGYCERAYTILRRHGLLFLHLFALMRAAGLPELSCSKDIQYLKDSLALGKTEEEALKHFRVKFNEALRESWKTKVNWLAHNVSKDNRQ

[8] = target: T3, Phosphatidylinositol 4,5-bisphosphate 3-kinase catalytic subunit delta isoform (Homo sapiens, UniProt O00329); assay: as §1
T3 sequence (O00329 whole entry): T2 sequence (whole entry)

[9] = tested on: Mycobacterium tuberculosis; assay: Inhibition of Mycobacterium tuberculosis ICL1 assessed as ratio of Kinact to Ki
[10] = Dissociation constant, pKa of the compound; format: physicochemical
[11] = target: Serine/threonine-protein kinase PLK1 (Homo sapiens, UniProt P53350); assay: Inhibition of PLK1 (unknown origin)
Sequence of Serine/threonine-protein kinase PLK1 (P53350 whole entry): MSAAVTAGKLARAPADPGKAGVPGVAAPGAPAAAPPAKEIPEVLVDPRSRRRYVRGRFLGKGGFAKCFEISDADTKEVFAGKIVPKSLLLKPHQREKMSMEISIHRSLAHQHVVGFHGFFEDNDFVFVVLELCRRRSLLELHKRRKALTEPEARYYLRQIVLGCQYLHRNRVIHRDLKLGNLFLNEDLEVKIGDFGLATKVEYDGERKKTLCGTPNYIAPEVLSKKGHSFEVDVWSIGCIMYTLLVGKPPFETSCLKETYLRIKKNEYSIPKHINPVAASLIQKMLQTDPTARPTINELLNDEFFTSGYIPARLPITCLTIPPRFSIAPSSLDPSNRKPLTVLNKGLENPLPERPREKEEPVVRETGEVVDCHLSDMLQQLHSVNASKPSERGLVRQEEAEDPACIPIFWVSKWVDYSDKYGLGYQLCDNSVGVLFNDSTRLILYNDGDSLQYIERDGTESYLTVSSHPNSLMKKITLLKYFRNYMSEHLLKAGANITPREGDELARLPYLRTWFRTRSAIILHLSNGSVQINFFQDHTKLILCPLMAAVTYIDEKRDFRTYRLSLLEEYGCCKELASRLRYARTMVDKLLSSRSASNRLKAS

[12] = Half life of the compound at pH 7.5; format: physicochemical
[13] = target: T4, m7GpppX diphosphatase (Homo sapiens, UniProt Q96C86); assay: Inhibition of DcpS (unknown origin) using m7GpppA as substrate by ELISA
T4 sequence (Q96C86 whole entry): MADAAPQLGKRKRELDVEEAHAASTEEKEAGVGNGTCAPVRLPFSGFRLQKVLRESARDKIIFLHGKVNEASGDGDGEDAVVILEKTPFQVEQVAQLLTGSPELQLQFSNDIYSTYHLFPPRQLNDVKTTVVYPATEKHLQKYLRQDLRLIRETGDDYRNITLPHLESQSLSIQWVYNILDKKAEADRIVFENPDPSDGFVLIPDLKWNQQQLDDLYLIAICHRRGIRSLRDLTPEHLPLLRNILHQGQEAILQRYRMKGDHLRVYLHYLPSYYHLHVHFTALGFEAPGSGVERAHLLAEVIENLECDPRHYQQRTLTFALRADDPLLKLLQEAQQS

[14] = target: Glutathione S-transferase P (Homo sapiens) (UniProt P09211); assay: Inhibition of GSTP1 (unknown origin) assessed as ratio of Kinact to Ki by MS/MS analysis
Sequence of Glutathione S-transferase P (Homo sapiens) (P09211 2-210 limits assumed): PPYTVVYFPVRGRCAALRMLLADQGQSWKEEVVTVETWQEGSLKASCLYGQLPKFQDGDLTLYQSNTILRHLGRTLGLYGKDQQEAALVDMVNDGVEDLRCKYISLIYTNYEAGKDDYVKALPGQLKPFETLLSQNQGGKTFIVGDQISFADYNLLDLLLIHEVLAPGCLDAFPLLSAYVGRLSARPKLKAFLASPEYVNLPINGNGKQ

[15] = target: ALK tyrosine kinase receptor (Homo sapiens, UniProt Q9UM73)
Sequence of ALK tyrosine kinase receptor (Q9UM73 whole entry): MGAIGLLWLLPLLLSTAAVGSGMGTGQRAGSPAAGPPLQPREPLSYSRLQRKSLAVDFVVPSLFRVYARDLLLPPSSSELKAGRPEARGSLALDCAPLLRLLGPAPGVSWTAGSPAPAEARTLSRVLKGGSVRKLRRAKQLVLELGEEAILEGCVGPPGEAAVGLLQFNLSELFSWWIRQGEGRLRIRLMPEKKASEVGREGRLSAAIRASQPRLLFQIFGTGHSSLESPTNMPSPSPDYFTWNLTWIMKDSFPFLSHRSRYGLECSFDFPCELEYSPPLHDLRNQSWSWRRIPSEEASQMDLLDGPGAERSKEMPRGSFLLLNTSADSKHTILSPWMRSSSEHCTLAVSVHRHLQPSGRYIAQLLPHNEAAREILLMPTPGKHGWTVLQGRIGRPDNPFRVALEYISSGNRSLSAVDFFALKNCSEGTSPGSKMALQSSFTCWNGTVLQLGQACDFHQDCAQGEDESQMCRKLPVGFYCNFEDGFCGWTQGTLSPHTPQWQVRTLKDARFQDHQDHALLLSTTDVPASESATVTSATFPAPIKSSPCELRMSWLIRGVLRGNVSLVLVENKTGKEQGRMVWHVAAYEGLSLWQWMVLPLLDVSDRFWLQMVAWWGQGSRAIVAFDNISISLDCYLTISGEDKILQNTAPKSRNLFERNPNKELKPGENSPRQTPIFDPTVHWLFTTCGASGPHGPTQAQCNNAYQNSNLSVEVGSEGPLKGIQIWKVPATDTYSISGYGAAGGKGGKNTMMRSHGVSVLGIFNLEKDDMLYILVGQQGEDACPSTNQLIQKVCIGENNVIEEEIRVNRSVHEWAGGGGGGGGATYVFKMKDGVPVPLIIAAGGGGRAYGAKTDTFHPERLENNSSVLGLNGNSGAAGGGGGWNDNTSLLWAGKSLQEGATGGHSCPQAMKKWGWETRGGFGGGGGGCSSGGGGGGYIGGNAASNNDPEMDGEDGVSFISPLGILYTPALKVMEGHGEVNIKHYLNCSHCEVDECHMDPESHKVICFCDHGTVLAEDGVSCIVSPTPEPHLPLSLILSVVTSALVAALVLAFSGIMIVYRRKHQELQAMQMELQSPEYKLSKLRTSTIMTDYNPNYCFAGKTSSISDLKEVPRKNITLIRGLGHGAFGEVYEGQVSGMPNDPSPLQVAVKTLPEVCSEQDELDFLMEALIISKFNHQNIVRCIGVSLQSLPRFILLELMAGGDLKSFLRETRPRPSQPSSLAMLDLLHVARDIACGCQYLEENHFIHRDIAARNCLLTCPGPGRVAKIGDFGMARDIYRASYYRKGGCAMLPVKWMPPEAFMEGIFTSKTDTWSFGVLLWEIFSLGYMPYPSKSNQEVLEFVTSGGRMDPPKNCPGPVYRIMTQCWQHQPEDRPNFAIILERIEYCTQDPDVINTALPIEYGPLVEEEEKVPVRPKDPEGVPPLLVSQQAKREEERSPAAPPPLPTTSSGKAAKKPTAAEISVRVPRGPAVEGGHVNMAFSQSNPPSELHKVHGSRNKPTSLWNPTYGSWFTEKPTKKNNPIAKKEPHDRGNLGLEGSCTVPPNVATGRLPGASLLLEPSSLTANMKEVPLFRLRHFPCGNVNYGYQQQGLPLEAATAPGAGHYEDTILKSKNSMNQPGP
Description: Inhibition of ALK (unknown origin) by TR-FRET assay

[16] = Inhibition of PLK1 C675 mutant (unknown origin); design: species or system Homo sapiens
[17] = Half life in plasma (unknown origin); format: ADME, cell-free
[18] = Half life of the compound in aqueous buffer at pH 7.2; format: physicochemical
[19] = target: T5, Peptidyl-prolyl cis-trans isomerase FKBP1A (Homo sapiens, UniProt P62942); assay: Inhibition of recombinant human FKBP12 after 24 hrs by MS/MS analysis
T5 sequence (P62942 whole entry): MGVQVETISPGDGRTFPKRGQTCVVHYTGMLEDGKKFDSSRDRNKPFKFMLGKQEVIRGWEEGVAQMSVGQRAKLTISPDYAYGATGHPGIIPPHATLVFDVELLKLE

[20] = target: T5, Peptidyl-prolyl cis-trans isomerase FKBP1A; assay: Inhibition of recombinant human FKBP12 assessed as ratio of Kinact to Ki after 24 hrs by MS/MS analysis
[21] = tested on: Hsp90 (human); assay: Inhibition of human Hsp90 assessed as ratio of Kinact to Ki by MS/MS analysis
[22] = tested on: Hsp90 (human); assay: Inhibition of human Hsp90 by MS/MS analysis

Sequence of SRSF protein kinase 1 (Q96SB4 whole entry): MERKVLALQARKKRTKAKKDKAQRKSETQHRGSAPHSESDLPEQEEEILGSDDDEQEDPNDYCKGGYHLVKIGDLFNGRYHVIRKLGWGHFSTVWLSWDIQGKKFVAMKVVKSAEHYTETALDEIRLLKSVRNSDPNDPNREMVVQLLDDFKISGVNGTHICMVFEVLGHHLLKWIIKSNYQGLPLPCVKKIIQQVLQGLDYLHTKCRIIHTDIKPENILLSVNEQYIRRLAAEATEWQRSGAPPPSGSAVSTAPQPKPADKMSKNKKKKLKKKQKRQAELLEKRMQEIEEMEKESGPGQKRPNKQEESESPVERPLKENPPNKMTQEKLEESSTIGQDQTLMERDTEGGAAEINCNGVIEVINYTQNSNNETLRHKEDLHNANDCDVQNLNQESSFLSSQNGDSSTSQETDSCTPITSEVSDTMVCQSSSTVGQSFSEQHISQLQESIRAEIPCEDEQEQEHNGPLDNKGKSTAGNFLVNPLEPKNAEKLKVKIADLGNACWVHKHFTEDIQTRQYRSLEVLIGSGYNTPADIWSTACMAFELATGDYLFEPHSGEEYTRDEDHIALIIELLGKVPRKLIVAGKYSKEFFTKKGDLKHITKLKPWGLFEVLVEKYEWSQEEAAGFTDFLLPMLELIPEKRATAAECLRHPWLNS

Q: Which half-life [1] does the source give for `C#Cc1cccc(Oc2ccc(-c3nn([C@@H]4CCCN(C(=O)/C=C/C(=O)O)C4)c4ncnc(N)c34)cc2)c1` here?
A: 2.15 h

Q: With `CCc1cc2c(cc1N1CCC(N3CCOCC3)CC1)C(C)(C)c1[nH]c3cc(C#N)ccc3c1C2=O` [ALECTINIB] as the compound, how does the IC50 [2] read?
A: 11 nM

Q: Which K [3] does the source give for `C[C@@H]1CCN(C(=O)CC#N)C[C@@H]1N(C)c1ncnc2[nH]ccc12` [TOFACITINIB] here?
A: 0.4 min⁻¹

Q: For `Cc1c(-c2cccc3c(CCCOc4cccc5ccccc45)c(C(=O)O)n(C)c23)c(COc2ccc(B(O)O)c(C=O)c2)nn1C`, which EC50 [4] is on record?
A: 75 nM

Q: And the koff [5]?
A: 0.01 s⁻¹

Q: What about the koff [6] of the same compound?
A: 0.13 s⁻¹

Q: For `COc1ncc(-c2cc(-c3ncc(CN4CCN(C(C)C)CC4)o3)c3cn[nH]c3c2)cc1C(=O)Oc1ccc([N+](=O)[O-])cc1`, which Kinact [7] is on record?
A: 0.0055 s⁻¹

Q: And the IC50 [8]?
A: 0.617 nM

Q: And the Ki [8]?
A: 40 nM

Q: Which results are given for `O=C(O)CC=[N+]([O-])[O-]`?
A: Ratio [9]: 2.6 ×10⁴ /M/s; pKa [10]: 9

Q: Which K [3] does the source give for `O=C1CS(=O)(=O)Cc2ccccc21` here?
A: 54.9 min⁻¹

Q: With `C#CCCCN1CC(=O)CC1=O` as the compound, how does the K [3] read?
A: 330 M⁻¹ s⁻¹

Q: Which IC50 [11] does the source give for `NC(=O)c1sc2c([n+]1[O-])C(SC[C@H](N)C(=O)O)C(SC(F)(F)F)=CC2[N+](=O)[O-]` (stereo partly drawn) here?
A: 400 nM

Q: Which K [3] does the source give for `O=C1CCCC(=O)C1` here?
A: 0.4 min⁻¹

Q: With `O=S(=O)(F)c1ccccc1` as the compound, how does the half-life [12] read?
A: 0.0833 to 0.25 h

Q: With `Nc1nc(N)c2c(OCc3ccc(S(=O)(=O)F)cc3)cccc2n1` as the compound, how does the IC50 [13] read?
A: < 0.02 nM

Q: With `C#CCCCC1CCC(=O)CC1=O` (stereo not drawn) as the compound, how does the K [3] read?
A: 10 M⁻¹ s⁻¹

Q: For `O=[N+]([O-])CS(=O)(=O)c1ccccc1`, which K [3] is on record?
A: 7.8 min⁻¹

Q: Which koff [5] does the source give for `Cc1c(-c2cccc3c(CCCOc4cccc5ccccc45)c(C(=O)O)[nH]c23)c(COc2ccc(B(O)O)c(C=O)c2)nn1C` here?
A: 0.018 s⁻¹

Q: What about the koff [6] of the same compound?
A: 0.14 s⁻¹

Q: Which K [3] does the source give for `O=C1CCN(Cc2ccccc2)C(=O)C1` here?
A: 86.4 min⁻¹

Q: With `C#CCCCN1c2ccccc2C(=O)CS1(=O)=O` as the compound, how does the K [3] read?
A: 1700 M⁻¹ s⁻¹

Q: Which K [3] does the source give for `O=C1CS(=O)(=O)N(Cc2ccccc2)c2ccccc21` here?
A: 190.5 min⁻¹

Q: For `C#CCCCN(c1nc(Cl)nc(Cl)n1)[C@@H](CC(C)C)C(=O)OC`, which Ratio [14] is on record?
A: 3.12 M⁻¹ s⁻¹

Q: For `CCc1cc2c(cc1-c1cccc(S(=O)(=O)F)c1)C(C)(C)c1[nH]c3cc(C#N)ccc3c1C2=O`, which IC50 [15] is on record?
A: 11 nM

Q: Which K [3] does the source give for `C#CCCCN1CS(=O)(=O)CC1=O` here?
A: 20 M⁻¹ s⁻¹

Q: With `COc1ncc(-c2cc(-c3ncc(CN4CCN(C(C)C)CC4)o3)c3cn[nH]c3c2)cc1C(=O)Oc1ccc(C)cc1C` as the compound, how does the Ki [8] read?
A: 7800 nM

Q: With `NC(=O)c1sc2c([n+]1[O-])C(SC[C@H](N)C(=O)O)C(C(F)(F)F)=CC2[N+](=O)[O-]` (stereo partly drawn) as the compound, how does the IC50 [16] read?
A: > 100000 nM

Q: And the IC50 [11]?
A: 2500 nM

Q: With `C#CCCCN1CCC(=O)CC1=O` as the compound, how does the K [3] read?
A: 1155 M⁻¹ s⁻¹

Q: With `CC(=O)CC(C)=O` as the compound, how does the K [3] read?
A: 3.8 min⁻¹

Q: With `C#Cc1cccc(Oc2ccc(-c3nn([C@@H]4CCCN(C(=O)/C=C/C(=O)OC(C)C)C4)c4ncnc(N)c34)cc2)c1` as the compound, how does the half-life [1] read?
A: < 0.0333 h

Q: With `CN(C)c1ccc(S(=O)(=O)F)cc1` as the compound, how does the half-life [17] read?
A: 25.1 h

Q: With `CS(=O)(=O)CC#N` as the compound, how does the K [3] read?
A: 28.6 min⁻¹

Q: For `O=C1CCC(=O)C1`, which K [3] is on record?
A: 0.02 min⁻¹

Q: Which K [3] does the source give for `CC(=O)CS(=O)(=O)c1ccccc1` here?
A: 8.7 min⁻¹

Q: Which results are given for `CCC(C)(C)C(=O)C(=O)N1CCCC[C@H]1C(=O)O[C@H](CCc1ccc(OC)c(OC)c1)c1cccc(OCC(=O)NCCCCCNC(=O)c2ccc(S(=O)(=O)N(CC#N)C(=O)CCCC[C@@H]3SC[C@@H]4NC(=O)N[C@@H]43)cc2)c1`?
A: half-life [18]: 43 h; Ki [19]: 210 nM; Kinact [19]: 6.1 ×10⁻³ /s; Ratio [20]: 2.9 ×10⁴ /M/s

Q: With `N#CCN(C(=O)CCCC(=O)NCCCn1c(Sc2cc3c(cc2I)OCO3)nc2c(N)ncnc21)S(=O)(=O)c1ccccc1` as the compound, how does the Ratio [21] read?
A: 2.9 ×10⁴ /M/s

Q: And the Ki [22]?
A: 62 nM

Q: Which half-life [1] does the source give for `C#Cc1cccc(Oc2ccc(-c3nn([C@@H]4CCCN(C(=O)/C=C/C(=O)OC)C4)c4ncnc(N)c34)cc2)c1` here?
A: < 0.0333 h

Q: With `N#CCS(=O)(=O)c1ccccc1` as the compound, how does the K [3] read?
A: 78 min⁻¹

Q: For `O=C1CC(=O)NC(=O)N1` [BARBITURIC ACID], which K [3] is on record?
A: 0.2 min⁻¹

Q: Which half-life [1] does the source give for `C#Cc1cccc(Oc2ccc(-c3nn([C@@H]4CCCN(C(=O)C=C)C4)c4ncnc(N)c34)cc2)c1` here?
A: 2.8 h

Q: For `O=C1CC(=O)c2ccccc21`, which K [3] is on record?
A: 22.9 min⁻¹

— ChEMBL document CHEMBL4350951, “Emerging and Re-Emerging Warheads for Targeted Covalent Inhibitors: Applications in Medicinal Chemistry and Chemical Biology” (J Med Chem, 2019)
